According to patent US7951779B2, “Method of protecting cells against damage and pharmaceutical composition comprising leumorphin” (Postech Academy-Industry Foundation, priority 2005, dated 2011):
Structures can show the parent of a compound that is named as a salt. Where two headings read alike, the source gives them in different places.

Legend:
[1] = system: PC12 cells; assay: MTT conversion assay of cell viability under serum deprivation; type: cell-based, rat
[2] = system: AKT and ERK; type: cell-based, rat
[3] = system: EGFR; assay: EGFR tyrosine phosphorylation, immunoprecipitation and Western blot in PC12 cells; type: cell-based, rat; settings: for effect on leumorphin-induced tyrosine phosphorylation of EGFR: preincubation 20 min: AG1478 1 μM, PP2 5 μM, naloxone or nor-BNI 1 μM, then leumorphin 1 μM 2 min
Procedure: Immunoprecipitation was performed as previously described (Daub et al., 1997). In brief, cells were washed with ice-cold PBS and lysed with lysis buffer (50 mM HEPES pH 7.5, 150 mM NaCl, 1% Triton X-100, 1 mM EDTA, 10% glycerol) containing protease inhibitors (0.5 mM PMSF, 1 μg/ml leupeptin and 5 μg/ml aprotinin) and phosphatase inhibitors (30 mM NaF, 1 mM Na3VO4 and 30 mM Na4O7P2). The cell lysates were incubated for 1 hr at 4° C. After centrifugation (12,000×g for 15 min), equal amounts of soluble extract were incubated for 4 hr, with 5 μg of anti-EGFR antibody and 30 μl of resin volume of immobilized protein G For gel electrophoresis, the precipitates were dissolved in Laemmli sample buffer.
FIGS. 5C and 5D, PC12 cells were stimulated with the indicated doses of leumorphin for 10 min (C) or with 1 μM of leumorphin for the indicated times (D). […] Cell lysates were subjected to Western blot analysis after immunoprecipitation with EGFR antibodies. Tyrosine-phosphorylated EGFRs were detected by immunoblotting with phosphotyrosine antibodies. The amounts of the precipitated EGFRs were monitored by reprobing the same blot with EGFR antibodies. […] In FIG. 5G, PC12 cells were preincubated with 1 μM AG1478 or 5 μM PP2 for 20 min and then stimulated with 1 μM leumorphin for 10 min. Phosphorylation of AKT and ERK was detected by Western blot analysis as in FIG. 4F. C-E,

[4] = system: PC12 cells; assay: DNA ploidy analysis (FACS, sub-Go/Gl) in serum-deprived PC12 cells; type: cell-based, rat; settings: 24 hr; for effect on the anti-apoptotic effect of leumorphin (sub-Go/Gl): antagonist 1 μM with leumorphin 1 μM
Procedure: Cells were suspended in PBS containing 5 mM EDTA and fixed in 100% ethanol. RNase A (50 μg/ml) was added to the suspended cells, and the cells were incubated at room temperature for 30 min. Propidium iodide (2 μg/ml) was added before reading. DNA contents of the cells were analyzed using a FACScan flow cytometer (Becton Dickinson, Franklin Lakes, N.J.), which was also used to determine the percentage of cells in the different phases of the cell cycle.
(§1) In FIG. 6A, Fragmentation of DNA in the nucleus was detected by a fluorescent TUNEL apoptosis assay. TUNEL stainings are shown in a-c, PI stainings are shown in d-f, and the merged images are presented in g-i. […] Each bar represents a fold increase of TUNEL-positive population of cells after treatment as indicated in serum-deprived condition versus those in serum-growing condition. In FIG. 6C, in order to analyze DNA ploidy, cells were fixed with ethanol, and FACS analysis was performed as described in “Materials and Methods”. In FIG. 6D, caspase-3 activity was measured by using a specific fluorogenic substrate of caspase-3 (Ac-DEVD -AMC) as described in “Materials and Methods”.

[5] = target: T1, KOR (Rattus norvegicus, UniProt P34975); type: cell-based
T1 construct: confirming that the KOR ligands we used have proper activities and that functional KOR is expressed in PC12 cells; endogenous in cells; host or cells: PC12 (rat pheochromocytoma)

[6] = system: PC12 cells; assay: Competition binding assay of 125I-labeled leumorphin in PC12 cells; set-up: species or system rat
Procedure: Ligand binding analysis was performed as previously described (Bae et al., 2004). Briefly, PC12 cells were seeded at a density of 4×10^5 cells/well into a 12-well plate and cultured overnight. After incubating the cells in blocking buffer (33 mM HEPES (pH 7.5) and 0.1% BSA in RPMI 1640) for 2 hr, 25 pM of ^125I-labeled leumorphin dissolved in binding buffer (PBS containing 0.1% BSA) was added to the cells in the absence or presence of unlabeled ligands and incubated for 3 hr at 4° C. The samples were then washed five times with ice-cold binding buffer, and 500 μl of 1 N NaOH was added to each well. After 10 min at room temperature, the lysates were collected and counted using a gamma counter.
We investigated the possibility that leumorphin might have another binding site(s), in addition to the binding site for the KOR in PC12 cells. That is, an inhibition of [^125I]leumorphin binding in PC12 cells was investigated. PC12 cells were treated with various concentrations of unlabeled leumorphin, (−)-U-50488 and nor-BNI in the presence of ^125I-labeled leumorphin (25 pM) for 3 hr at 4° C. Specifically bound ^125I-labeled leumorphin was measured as described in “Materials and Methods”. For this purpose, we performed competition binding assay of ^125I-labeled leumorphin with unlabeled-agonists, leumorphin and (−)-U-50488, and an antagonist, nor-BNI.

[7] = system: caspase-3; assay: Caspase-3 enzymatic activity in PC12 cell lysates; type: cell-based, rat; settings: 24 hr
Procedure: PC12 cell lysates were centrifuged at 1,000×g for 10 min. Equal amount of supernatant (20 μg protein) was diluted in buffer containing 100 mM Hepes, 10% sucrose, 5 mM dithiothreitol, […], and 0.1% CHAPS (pH 7.25), and was added to each well of a 96-well plate containing 50 μM DEVD-aminomethylcoumarin (AMC). After incubation at 37° C. for 1 hr, the cleaved free AMC was detected using a fluorospectrophotometer (excitation of 355 nm, emission of 460 nm).
as §1

[8] = system: AKT and ERK; assay: AKT and ERK phosphorylation in HEK-293 cells that do not express the KOR; type: cell-based; settings: data not shown
[9] = system: PC12 cells; assay: TUNEL apoptosis assay in serum-deprived PC12 cells; type: cell-based, rat; settings: leumorphin 1 μM, 24 hr
Procedure: TUNEL assay was performed according to the manufactures' instruction (Promega Corp.). Briefly, cells on coverslips were fixed with 4% paraformaldehyde for 30 min after stimulation, washed with PBS, permeabilized with 0.2% Triton X-100 for 5 min, rinsed with PBS, and were incubated with 25 μL TUNEL reaction mixture (containing enzyme, nucleotides, and fluorescein-dUTP) in a humidified atmosphere at 37° C. for 1 hr. To observe nuclear morphology, cells were counterstained with 2 μg/ml propidium iodide. Following these incubations, coverslips were rinsed with PBS three times and analyzed under conforcal microscopy We captured images which had at least 100 cells and used five different images from three independent experiments for statistic analysis.
It has been reported that in PC12 cells apoptosis can be induced by serum deprivation, which mimics the fluctuations in the supply of growth factors (Batistatou et al., 1993). […]
In FIG. 6A, Fragmentation of DNA in the nucleus was detected by a fluorescent TUNEL apoptosis assay. […] In FIG. 6D, caspase-3 activity was measured by using a specific fluorogenic substrate of caspase-3 (Ac-DEVD -AMC) as described in “Materials and Methods”.

T1 sequence (P34975 whole entry): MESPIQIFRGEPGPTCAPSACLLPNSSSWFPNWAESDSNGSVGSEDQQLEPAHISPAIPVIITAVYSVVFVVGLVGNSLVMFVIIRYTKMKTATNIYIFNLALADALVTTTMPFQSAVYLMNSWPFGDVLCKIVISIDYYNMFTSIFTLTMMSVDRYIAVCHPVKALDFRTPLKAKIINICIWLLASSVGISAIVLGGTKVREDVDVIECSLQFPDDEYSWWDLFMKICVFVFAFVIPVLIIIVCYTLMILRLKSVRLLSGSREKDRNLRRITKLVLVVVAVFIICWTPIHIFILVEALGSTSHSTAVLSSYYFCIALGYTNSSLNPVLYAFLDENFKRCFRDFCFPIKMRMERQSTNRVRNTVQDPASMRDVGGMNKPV

## O=c1cc(N2CCOCC2)oc2c(-c3ccccc3)cccc12 [LY294002, [2-(4-morpholinyl)-8-phenyl-4H-1-benzopyran-4-one]]
[1]; inhibitor 5 μM (AG1478 1 μM) with leumorphin 1 μM, 24 hr
  effect of kinase inhibitor on leumorphin-induced enhancement of cell viability: attenuated

## COc1cccc(-c2cc(=O)c3ccccc3o2)c1N [PD98059, [2′-amino-3′-methoxyflavone]
[1]
  effect of kinase inhibitor on leumorphin-induced enhancement of cell viability: attenuated

## CC(C)(C)n1nc(-c2ccc(Cl)cc2)c2c(N)ncnc21 [PP2]
[1]
  effect of kinase inhibitor on leumorphin-induced enhancement of cell viability: significantly inhibited
[2]
  effect on leumorphin-induced phosphorylation of AKT and ERK: significantly inhibited
[3]
  effect on leumorphin-induced tyrosine phosphorylation of EGFR: completely blocked to the basal level

## CS/C(N)=C(C#N)/C(C#N)=C(\N)SC [U0124]
[1]
  effect of kinase inhibitor on leumorphin-induced enhancement of cell viability: had no effect

## N#CC(=C(/N)Sc1ccccc1N)/C(C#N)=C(\N)Sc1ccccc1N [U0126]
[1]
  effect of kinase inhibitor on leumorphin-induced enhancement of cell viability: attenuated

## C=CCN1CC[C@]23c4c5ccc(O)c4O[C@H]2C(=O)CC[C@@]3(O)[C@H]1C5 [naloxone]
[1]
  effect on leumorphin-induced enhancement of cell viability: insensitive
[2]
  effect on leumorphin-induced phosphorylation of AKT and ERK: Neither of the antagonists, naloxone and nor-BNI, inhibited
  effect on the phosphorylation level of AKT and ERK when given alone: did not have any effects
[3]
  effect on leumorphin-induced tyrosine phosphorylation of EGFR: neither nor-BNI nor naloxone exhibited any inhibitory effect
[4]
  effect on the anti-apoptotic effect of leumorphin (sub-Go/Gl): failed to block

## Oc1ccc2c3c1O[C@H]1c4[nH]c5ccccc5c4C[C@@]4(O)[C@@H](C2)N(CC2CC2)CC[C@]314 [naltrindole]
[1]
  effect on leumorphin-induced enhancement of cell viability: failed to attenuate
  effect on leumorphin-induced increase in cell viability at higher concentration: failed to attenuate

## Oc1ccc2c3c1O[C@H]1c4[nH]c5c(c4C[C@@]4(O)[C@@H](C2)N(CC2CC2)CC[C@]314)C[C@@]1(O)[C@H]2Cc3ccc(O)c4c3[C@@]1(CCN2CC1CC1)[C@H]5O4 [nor-BNI, nor-binaltorphimine dihydrochloride]
[1]
  effect on leumorphin-induced enhancement of cell viability: insensitive
  effect on leumorphin-induced increase in cell viability at higher concentration: failed to attenuate
[5]
  effect on the inhibitory effect of leumorphin on forskolin-induced increase of cAMP content: reversed
[6]; 25 pM 125I-labeled leumorphin, 3 hr, 4° C.
  concentration at which the inhibitory extent reached its maximum and was saturated: 100 nM
[2]
  effect on leumorphin-induced phosphorylation of AKT and ERK: Neither of the antagonists, naloxone and nor-BNI, inhibited
  effect on the phosphorylation level of AKT and ERK when given alone: did not have any effects
[3]
  effect on leumorphin-induced tyrosine phosphorylation of EGFR: neither nor-BNI nor naloxone exhibited any inhibitory effect
[4]
  effect on the anti-apoptotic effect of leumorphin (sub-Go/Gl): failed to block
[7]; nor-BNI 1 μM with leumorphin 1 μM
  effect on the inhibitory effect of leumorphin on caspase activity: not blocked

## D-Phe-Cys-Tyr-D-Trp-Om-Thr-Pen-Thr-NH2 [CTOP]
[1]
  effect on leumorphin-induced enhancement of cell viability: failed to attenuate
  effect on leumorphin-induced increase in cell viability at higher concentration: failed to attenuate

## UFP-101
[2]
  effect on leumorphin-induced phosphorylation of AKT and ERK: did not have any effect

## dynorphin
[1]
  cell viability (MTT conversion, percentage of surviving cells): did not have any significant effect on cell viability
[2]
  phosphorylation of AKT and ERK: none of these effects were elicited

## leumorphin
[1]
  cell viability (MTT conversion, percentage of surviving cells): specifically enhanced
  dose- and time-dependence of enhancement of cell viability: dose-(FIG. 1D) and a time-dependent (FIG. 1E) manner
[5]; agonist 1 μM, 10 min, Ro-20-1724 pretreatment
  effect on forskolin-induced increase of cAMP contents: inhibitory effect
[6]
  concentration up to which the inhibitory extent continued to increase: 10 µM
  replacement of labeled leumorphin: completely replaced
[2]
  phosphorylation of AKT and ERK: specifically induced phosphorylation of both AKT and ERK
[8]
  phosphorylation of AKT and ERK in HEK-293 cells: specifically induced phosphorylation of AKT and ERK
[3]; indicated doses for 10 min, 1 μM for indicated times
  tyrosine phosphorylation of EGFR: induced tyrosine phosphorylation of EGFR in dose- and time-dependent manner
[9]
  population of TUNEL-positive cells increased by serum deprivation: significantly reduced
[4]; leumorphin 1 μM, serum deprivation, 35.7±2.2% without leumorphin
  sub-Go/Gl area, indicative of the apoptotic population: 25.8±1.8%
[7]; leumorphin 1 μM
  activity of caspase-3 elevated by serum-deprivation: decreased

## pertussis toxin [PTX]
[1]
  effect on leumorphin-induced enhancement of cell viability: unaffected
[5]; naloxone or nor-BNI 1 μM, PTX 100 ng/ml 20 hr, leumorphin 1 μM
  effect on the inhibitory effect of leumorphin on forskolin-induced increase of cAMP content: reversed
[2]
  effect on leumorphin-induced phosphorylation of AKT and ERK: did not have any inhibitory effects
  effect on the phosphorylation level of AKT and ERK when given alone: did not have any effects

## rimorphin
[1]
  cell viability (MTT conversion, percentage of surviving cells): none of these effects were elicited
[2]
  phosphorylation of AKT and ERK: none of these effects were elicited

## β-endorphin (YGGFMTSEKSQTPLVTLFKNAIIKNAYKKGE; Beta-endorphin; UniProt P01189 237-267, looked up) [an agonist of the ε-type receptor]
[2]
  phosphorylation of AKT and ERK: neither AKT nor ERK was phosphorylated

## β-neoendorphin (YGGFLRKYP; Beta-neoendorphin; UniProt P01213 175-183, looked up) [prodynorphin gene product, endogenous KOR ligand]
[1]
  cell viability (MTT conversion, percentage of surviving cells): none of these effects were elicited
[2]
  phosphorylation of AKT and ERK: none of these effects were elicited
